Values belong to the molecule of their own block, whether it stands above or below them.
Legend:
Format in all cases: functional, cell membranes, Membrane vesicle
[1] = molecular target: T1, MRP4 (ATP-binding cassette sub-family C member 4) (Homo sapiens, UniProt O15439); assay: TP_TRANSPORTER: inhibition of MTX uptake (MTX: 20 uM, Zaprinast: 10 uM) in membrane vesicles from MRP4-expressing Sf9 cells; design: scale not given: the % may be the effect or the level left; conditions: probe MTX (20 uM), read-out: Activity
T1 sequence (O15439 whole entry): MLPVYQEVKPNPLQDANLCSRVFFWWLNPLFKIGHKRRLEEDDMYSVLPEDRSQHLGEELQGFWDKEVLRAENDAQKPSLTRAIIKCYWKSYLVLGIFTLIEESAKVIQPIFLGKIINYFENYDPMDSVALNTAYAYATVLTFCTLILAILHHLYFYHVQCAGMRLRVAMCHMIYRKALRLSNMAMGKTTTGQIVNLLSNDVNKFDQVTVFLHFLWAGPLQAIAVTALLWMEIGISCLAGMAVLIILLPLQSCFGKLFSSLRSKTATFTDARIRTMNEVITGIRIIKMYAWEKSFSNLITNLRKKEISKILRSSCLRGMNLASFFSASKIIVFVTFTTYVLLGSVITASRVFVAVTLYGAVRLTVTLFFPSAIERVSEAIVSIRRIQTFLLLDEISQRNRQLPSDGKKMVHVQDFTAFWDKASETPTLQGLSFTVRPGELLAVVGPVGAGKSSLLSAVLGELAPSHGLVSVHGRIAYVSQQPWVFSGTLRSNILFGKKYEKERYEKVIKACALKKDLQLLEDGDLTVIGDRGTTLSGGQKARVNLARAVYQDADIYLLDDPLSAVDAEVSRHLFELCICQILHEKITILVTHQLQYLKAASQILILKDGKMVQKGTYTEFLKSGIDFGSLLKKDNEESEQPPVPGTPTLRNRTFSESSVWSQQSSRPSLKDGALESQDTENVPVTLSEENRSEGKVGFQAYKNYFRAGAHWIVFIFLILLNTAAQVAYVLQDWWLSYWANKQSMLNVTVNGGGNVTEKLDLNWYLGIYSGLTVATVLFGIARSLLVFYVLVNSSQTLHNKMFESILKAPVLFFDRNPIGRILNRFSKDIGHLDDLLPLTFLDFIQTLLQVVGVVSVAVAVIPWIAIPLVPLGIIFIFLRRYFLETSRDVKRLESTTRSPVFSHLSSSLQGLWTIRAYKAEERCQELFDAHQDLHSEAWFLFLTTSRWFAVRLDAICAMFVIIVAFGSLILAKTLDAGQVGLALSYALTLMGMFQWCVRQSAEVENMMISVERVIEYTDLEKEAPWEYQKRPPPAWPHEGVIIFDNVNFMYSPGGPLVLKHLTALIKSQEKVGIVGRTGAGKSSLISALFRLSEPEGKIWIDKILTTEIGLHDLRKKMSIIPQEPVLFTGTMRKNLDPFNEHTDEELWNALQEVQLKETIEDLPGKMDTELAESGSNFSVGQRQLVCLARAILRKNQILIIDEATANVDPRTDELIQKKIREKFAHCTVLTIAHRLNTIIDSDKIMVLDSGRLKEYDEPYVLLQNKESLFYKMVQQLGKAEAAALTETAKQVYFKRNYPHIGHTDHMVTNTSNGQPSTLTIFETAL

[2] = molecular target: T1, MRP4 (ATP-binding cassette sub-family C member 4); assay: TP_TRANSPORTER: inhibition of MTX uptake (MTX: 20 uM, Verapamil: 30 uM) in membrane vesicles from MRP4-expressing Sf9 cells; design: scale not given: the % may be the effect or the level left; conditions: probe MTX (20 uM), read-out: Activity
[3] = molecular target: T1, MRP4 (ATP-binding cassette sub-family C member 4); assay: TP_TRANSPORTER: inhibition of MTX uptake (MTX: 20 uM, Sulfinpyrazone: 300 uM) in membrane vesicles from MRP4-expressing Sf9 cells; design: scale not given: the % may be the effect or the level left; conditions: probe MTX (20 uM), read-out: Activity
[4] = molecular target: T1, MRP4 (ATP-binding cassette sub-family C member 4); assay: TP_TRANSPORTER: inhibition of MTX uptake (MTX: 20 uM, Folic acid: 300 uM) in membrane vesicles from MRP4-expressing Sf9 cells; design: scale not given: the % may be the effect or the level left; conditions: probe MTX (20 uM), read-out: Activity
[5] = molecular target: T1, MRP4 (ATP-binding cassette sub-family C member 4); assay: TP_TRANSPORTER: inhibition of MTX uptake (MTX: 20 uM, PSC-833: 10 uM) in membrane vesicles from MRP4-expressing Sf9 cells; design: scale not given: the % may be the effect or the level left; conditions: probe MTX (20 uM), read-out: Activity
[6] = molecular target: T1, MRP4 (ATP-binding cassette sub-family C member 4); assay: TP_TRANSPORTER: inhibition of MTX uptake (MTX: 20 uM, Sildenafil: 10 uM) in membrane vesicles from MRP4-expressing Sf9 cells; design: scale not given: the % may be the effect or the level left; conditions: probe MTX (20 uM), read-out: Activity
[7] = molecular target: T1, MRP4 (ATP-binding cassette sub-family C member 4); assay: TP_TRANSPORTER: inhibition of MTX uptake (MTX: 20 uM, E217betaG: 30 uM) in membrane vesicles from MRP4-expressing Sf9 cells; design: scale not given: the % may be the effect or the level left; conditions: probe MTX (20 uM), read-out: Activity
[8] = molecular target: T1, MRP4 (ATP-binding cassette sub-family C member 4); assay: TP_TRANSPORTER: inhibition of MTX uptake (MTX: 20 uM, Leucovorin: 300 uM) in membrane vesicles from MRP4-expressing Sf9 cells; design: scale not given: the % may be the effect or the level left; conditions: probe MTX (20 uM), read-out: Activity
[9] = molecular target: T1, MRP4 (ATP-binding cassette sub-family C member 4); assay: TP_TRANSPORTER: inhibition of MTX uptake (MTX: 20 uM, MK571: 1 uM) in membrane vesicles from MRP4-expressing Sf9 cells; design: scale not given: the % may be the effect or the level left; conditions: probe MTX (20 uM), read-out: Activity
[10] = molecular target: T1, MRP4 (ATP-binding cassette sub-family C member 4); assay: TP_TRANSPORTER: inhibition of MTX uptake (MTX: 20 uM, Probenecid: 300 uM) in membrane vesicles from MRP4-expressing Sf9 cells; design: scale not given: the % may be the effect or the level left; conditions: probe MTX (20 uM), read-out: Activity
[11] = molecular target: T1, MRP4 (ATP-binding cassette sub-family C member 4); assay: TP_TRANSPORTER: inhibition of MTX uptake (MTX: 20 uM, Trequinsin: 10 uM) in membrane vesicles from MRP4-expressing Sf9 cells; design: scale not given: the % may be the effect or the level left; conditions: probe MTX (20 uM), read-out: Activity
[12] = molecular target: T1, MRP4 (ATP-binding cassette sub-family C member 4); assay: TP_TRANSPORTER: inhibition of MTX uptake (MTX: 20 uM, cGMP: 300 uM) in membrane vesicles from MRP4-expressing Sf9 cells; design: scale not given: the % may be the effect or the level left; conditions: probe MTX (20 uM), read-out: Activity
[13] = substrate: Nc1nc2c(c(=O)[nH]1)N(C=O)C(CNc1ccc(C(=O)N[C@@H](CCC(=O)O)C(=O)O)cc1)CN2; assay: (§1) TP_TRANSPORTER: uptake in membrane vesicles from MRP4-expressing Sf9 cells
[14] = substrate: Nc1nc2ncc(CNc3ccc(C(=O)N[C@@H](CCC(=O)O)C(=O)O)cc3)nc2c(=O)[nH]1; assay: as §1

Molecule: COc1ccc(CCN(C)CCCC(C#N)(c2ccc(OC)c(OC)c2)C(C)C)cc1OC (centres undefined)
activity at 30 µM [2]: 53.8%

Molecule: Nc1nc2ncc(CNc3ccc(C(=O)N[C@@H](CCC(=O)O)C(=O)O)cc3)nc2c(=O)[nH]1 [FOLIC ACID]
activity at 300 µM [4]: 45%

Molecule: CCCc1nn(C)c2c(=O)[nH]c(-c3cc(S(=O)(=O)N4CCN(C)CC4)ccc3OCC)nc12
activity at 10 µM [6]: 46%

Molecule: C[C@]12CC[C@@H]3c4ccc(O)cc4CC[C@H]3[C@@H]1CC[C@@H]2O[C@@H]1O[C@H](C(=O)O)[C@@H](O)[C@H](O)[C@H]1O [ESTRADIOL 17B GLUCURONIDE]
activity at 30 µM [7]: 39.9%

B1: ATP-binding cassette sub-family C member 4 (Homo sapiens) (protein)
chain: MLPVYQEVKPNPLQDANLCSRVFFWWLNPLFKIGHKRRLEEDDMYSVLPEDRSQHLGEELQGFWDKEVLRAENDAQKPSLTRAIIKCYWKSYLVLGIFTLIEESAKVIQPIFLGKIINYFENYDPMDSVALNTAYAYATVLTFCTLILAILHHLYFYHVQCAGMRLRVAMCHMIYRKALRLSNMAMGKTTTGQIVNLLSNDVNKFDQVTVFLHFLWAGPLQAIAVTALLWMEIGISCLAGMAVLIILLPLQSCFGKLFSSLRSKTATFTDARIRTMNEVITGIRIIKMYAWEKSFSNLITNLRKKEISKILRSSCLRGMNLASFFSASKIIVFVTFTTYVLLGSVITASRVFVAVTLYGAVRLTVTLFFPSAIERVSEAIVSIRRIQTFLLLDEISQRNRQLPSDGKKMVHVQDFTAFWDKASETPTLQGLSFTVRPGELLAVVGPVGAGKSSLLSAVLGELAPSHGLVSVHGRIAYVSQQPWVFSGTLRSNILFGKKYEKERYEKVIKACALKKDLQLLEDGDLTVIGDRGTTLSGGQKARVNLARAVYQDADIYLLDDPLSAVDAEVSRHLFELCICQILHEKITILVTHQLQYLKAASQILILKDGKMVQKGTYTEFLKSGIDFGSLLKKDNEESEQPPVPGTPTLRNRTFSESSVWSQQSSRPSLKDGALESQDTENVPVTLSEENRSEGKVGFQAYKNYFRAGAHWIVFIFLILLNTAAQVAYVLQDWWLSYWANKQSMLNVTVNGGGNVTEKLDLNWYLGIYSGLTVATVLFGIARSLLVFYVLVNSSQTLHNKMFESILKAPVLFFDRNPIGRILNRFSKDIGHLDDLLPLTFLDFIQTLLQVVGVVSVAVAVIPWIAIPLVPLGIIFIFLRRYFLETSRDVKRLESTTRSPVFSHLSSSLQGLWTIRAYKAEERCQELFDAHQDLHSEAWFLFLTTSRWFAVRLDAICAMFVIIVAFGSLILAKTLDAGQVGLALSYALTLMGMFQWCVRQSAEVENMMISVERVIEYTDLEKEAPWEYQKRPPPAWPHEGVIIFDNVNFMYSPGGPLVLKHLTALIKSQEKVGIVGRTGAGKSSLISALFRLSEPEGKIWIDKILTTEIGLHDLRKKMSIIPQEPVLFTGTMRKNLDPFNEHTDEELWNALQEVQLKETIEDLPGKMDTELAESGSNFSVGQRQLVCLARAILRKNQILIIDEATANVDPRTDELIQKKIREKFAHCTVLTIAHRLNTIIDSDKIMVLDSGRLKEYDEPYVLLQNKESLFYKMVQQLGKAEAAALTETAKQVYFKRNYPHIGHTDHMVTNTSNGQPSTLTIFETAL
Km [13]: 640 µM
Km [14]: 170 µM

Next, values leading:

activity at 10 µM [1]: 34.1%
Molecule: CCCOc1ccccc1-c1nc2nn[nH]c2c(=O)[nH]1 [ZAPRINAST]

activity at 300 µM [3]: 23.3%
Molecule: O=C1C(CC[S+]([O-])c2ccccc2)C(=O)N(c2ccccc2)N1c1ccccc1 (centres undefined) [SULFINPYRAZONE]

activity at 10 µM [5]: 56.4%
Molecule: C/C=C/C[C@@H](C)C(=O)[C@H]1C(=O)N[C@@H](C(C)C)C(=O)N(C)CC(=O)N(C)[C@@H](CC(C)C)C(=O)N[C@@H](C(C)C)C(=O)N(C)[C@@H](CC(C)C)C(=O)N[C@@H](C)C(=O)N[C@H](C)C(=O)N(C)[C@@H](CC(C)C)C(=O)N(C)[C@@H](CC(C)C)C(=O)N(C)[C@@H](C(C)C)C(=O)N1C [VALSPODAR]

activity at 300 µM [8]: 71.2%
Molecule: Nc1nc2c(c(=O)[nH]1)N(C=O)C(CNc1ccc(C(=O)N[C@@H](CCC(=O)O)C(=O)O)cc1)CN2 (some centres undefined) [LEUCOVORIN]

activity at 1 µM [9]: 56.4%
Molecule: CN(C)C(=O)CCSC(SCCC(=O)O)c1cccc(/C=C/c2ccc3ccc(Cl)cc3n2)c1 (centres undefined) [MK-571]

activity at 300 µM [10]: 49.4%
Molecule: CCCN(CCC)S(=O)(=O)c1ccc(C(=O)O)cc1 [PROBENECID]

activity at 10 µM [11]: 25.7%
Molecule: COc1cc2c(cc1OC)-c1c/c(=N\c3c(C)cc(C)cc3C)n(C)c(=O)n1CC2 [TREQUINSIN]

activity at 300 µM [12]: 46.5%
Molecule: Nc1nc2c(ncn2[C@@H]2O[C@@H]3COP(=O)(O)O[C@H]3[C@H]2O)c(=O)[nH]1

— ChEMBL document CHEMBL2074469, “Analysis of methotrexate and folate transport by multidrug resistance protein 4 (ABCC4): MRP4 is a component of the methotrexate efflux system” (Cancer Res, 2002)
